Source: patent US7074789B2, “Kinase inhibitors” (Amgen Inc., priority 1999, dated 2006)
Where two headings read alike, the source gives them in different places.

Legend:
Type in all cases: biochemical
Lck = molecular target: T1, Lck (Homo sapiens, UniProt P06239); assay: Kinase inhibition assay (33P transfer), Lck; conditions: read-out: Lck-1
T1 construct: Kinases are expressed as either kinase domains or full length constructs; made in house
Method in brief: (§1)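 Radiometric readout: 33P incorporated into surface-bound poly(Glu,Tyr) 4:1 or poly(Arg,Ser) 3:1 is counted by liquid scintillation after a 0.5% phosphoric acid wash. Enzymes were GST or polyHis fusions (kinase domain or full length) from E. coli or High Five insect cells.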

Lyn = molecular target: T2, Lyn (Homo sapiens, UniProt P07948); assay: Kinase inhibition assay (33P transfer), Lyn; conditions: Table 6, Lyn-1 kinase inhibition class
T2 construct: Kinases are expressed as either kinase domains or full length constructs; made in house
Description: (§2) The inhibitor compounds described herein are screened in the following manner. Kinases suitable for use in the following protocol to determine kinase activity of the compounds described herein include, -but are not limited to: Lck, Lyn, Src, Fyn, Syk, Zap-70, Itk, Tec, Btk, EGFR, ErbB2, Kdr, Flt-1, Flt-3, Tek, c-Met, InsR, and AKT.
(§3) Kinases are expressed as either kinase domains or full length constructs fused to glutathione S-transferase (GST) or polyHistidine tagged fusion proteins in either E. colior Baculovirus-High Five expression systems. They are purified to near homogeneity by affinity chromatography essentially as previously described (Lehr et al., 1996; Gish et al., 1995). In some instances, kinases are co-expressed or mixed with purified or partially purified regulatory polypeptides prior to measurement of activity.
(§4) Kinase activity and inhibition are measured essentially by established protocols (Braunwalder et al., 1996). Briefly, The transfer of ^33PO4 from ATP to the synthetic substrates poly(Glu, Tyr) 4:1 or poly(Arg, Ser) 3:1 attached to the bioactive surface of microtiter plates serves as the basis to evaluate enzyme activity. After an incubation period, the amount of phosphate transferred is measured by first washing the plate with 0.5% phosphoric acid, adding liquid scintillant, and then counting in a liquid scintillation detector. The IC50 is determined by the concentration of compound that causes a 50% reduction in the amount of […] incorporated onto the substrate bound to the plate.

Src = molecular target: T3, Src (Homo sapiens, UniProt P12931); assay: Kinase inhibition assay (33P transfer), Src; conditions: Table 6, Src-1 kinase inhibition class
T3 construct: Kinases are expressed as either kinase domains or full length constructs; made in house
Description: as §2, §3, §4

Fyn = molecular target: T4, Fyn (Homo sapiens, UniProt P06241); assay: Kinase inhibition assay (33P transfer), Fyn; conditions: read-out: Fyn-1
T4 construct: Kinases are expressed as either kinase domains or full length constructs; made in house
Description: as §2, §3, §4

Zap-70 = molecular target: T5, Zap-70 (Homo sapiens, UniProt P43403); assay: Kinase inhibition assay (33P transfer), Zap-70; conditions: read-out: Zap-1
T5 construct: Kinases are expressed as either kinase domains or full length constructs; made in house
T5 sequence (P43403 1-619): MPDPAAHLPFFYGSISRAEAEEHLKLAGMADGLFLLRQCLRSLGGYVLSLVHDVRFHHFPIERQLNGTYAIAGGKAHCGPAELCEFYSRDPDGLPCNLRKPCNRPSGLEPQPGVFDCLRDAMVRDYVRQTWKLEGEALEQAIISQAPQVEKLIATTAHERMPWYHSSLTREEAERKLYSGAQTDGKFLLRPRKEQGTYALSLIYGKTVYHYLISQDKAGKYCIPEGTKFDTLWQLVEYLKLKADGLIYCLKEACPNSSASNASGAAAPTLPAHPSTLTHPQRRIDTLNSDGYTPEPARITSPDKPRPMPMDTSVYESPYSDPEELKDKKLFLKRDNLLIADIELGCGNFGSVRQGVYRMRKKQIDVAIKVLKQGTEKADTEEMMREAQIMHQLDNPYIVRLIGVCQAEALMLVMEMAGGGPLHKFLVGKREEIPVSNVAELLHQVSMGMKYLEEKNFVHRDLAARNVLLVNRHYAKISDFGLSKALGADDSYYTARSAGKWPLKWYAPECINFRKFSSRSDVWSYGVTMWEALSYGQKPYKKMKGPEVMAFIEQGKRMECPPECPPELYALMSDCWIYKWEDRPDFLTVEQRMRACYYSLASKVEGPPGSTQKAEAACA
Method in brief: as §1

Itk = molecular target: T6, Itk (Homo sapiens, UniProt Q08881); assay: Kinase inhibition assay (33P transfer), Itk; conditions: read-out: Itk-1
T6 construct: Kinases are expressed as either kinase domains or full length constructs; made in house
T6 sequence (Q08881 1-620): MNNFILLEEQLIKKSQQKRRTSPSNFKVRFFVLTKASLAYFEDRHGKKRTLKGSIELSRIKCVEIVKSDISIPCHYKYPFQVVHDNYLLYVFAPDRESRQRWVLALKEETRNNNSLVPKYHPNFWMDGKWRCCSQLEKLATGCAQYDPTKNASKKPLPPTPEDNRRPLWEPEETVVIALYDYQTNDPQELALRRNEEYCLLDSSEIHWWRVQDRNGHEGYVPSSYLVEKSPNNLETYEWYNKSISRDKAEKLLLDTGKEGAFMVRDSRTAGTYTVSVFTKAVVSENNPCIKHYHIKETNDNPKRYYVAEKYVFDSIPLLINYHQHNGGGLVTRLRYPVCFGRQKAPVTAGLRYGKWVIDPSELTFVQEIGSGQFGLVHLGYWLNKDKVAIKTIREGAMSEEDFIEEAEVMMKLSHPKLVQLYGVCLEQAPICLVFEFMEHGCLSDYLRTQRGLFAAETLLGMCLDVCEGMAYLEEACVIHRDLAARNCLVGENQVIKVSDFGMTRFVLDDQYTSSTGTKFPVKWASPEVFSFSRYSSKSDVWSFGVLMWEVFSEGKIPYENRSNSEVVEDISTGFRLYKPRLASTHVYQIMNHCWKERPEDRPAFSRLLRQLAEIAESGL
Method in brief: (§5)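 Recombinant kinase domains or full-length GST- or His-tagged constructs, from E. coli or baculovirus/High Five cells, sometimes with regulatory polypeptides. Transfer of 33P from ATP to plate-bound poly(Glu,Tyr) 4:1 or poly(Arg,Ser) 3:1 counted by liquid scintillation after phosphoric acid wash; IC50 is the concentration halving incorporation.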

EGFR = molecular target: T7, EGFR (Homo sapiens, UniProt P00533); assay: Kinase inhibition assay (33P transfer), EGFR; conditions: Table 2, kinase inhibition class; read-out: EGFR-1
T7 construct: Kinases are expressed as either kinase domains or full length constructs; made in house
Method in brief: as §5

Kdr = molecular target: T8, Kdr (Homo sapiens, UniProt P35968); assay: Kinase inhibition assay (33P transfer), Kdr; conditions: read-out: KDR-1
T8 construct: Kinases are expressed as either kinase domains or full length constructs; made in house
Method in brief: as §1

Flt-1 = molecular target: T9, Flt-1 (Homo sapiens, UniProt P17948); assay: Kinase inhibition assay (33P transfer), Flt-1
T9 construct: Kinases are expressed as either kinase domains or full length constructs; made in house
Description: as §2, §3, §4

Tek = molecular target: T10, Tek (Homo sapiens, UniProt Q02763); assay: Kinase inhibition assay (33P transfer), Tek; conditions: read-out: Tek-1
T10 construct: Kinases are expressed as either kinase domains or full length constructs; made in house
Method in brief: as §5

c-Met = molecular target: T11, c-Met (Homo sapiens, UniProt P08581); assay: Kinase inhibition assay (33P transfer), c-Met; conditions: Table 2, kinase inhibition class; read-out: Met-1
T11 construct: Kinases are expressed as either kinase domains or full length constructs; made in house
Method in brief: as §5

AKT = molecular target: T12, AKT (Homo sapiens, UniProt Q9Y243); assay: Kinase inhibition assay (33P transfer), AKT; conditions: Table 2, kinase inhibition class; read-out: AKT3-1
T12 construct: Kinases are expressed as either kinase domains or full length constructs; made in house
Method in brief: as §1

PDGFRB = molecular target: T13, PDGFRB (Homo sapiens, UniProt P09619); assay: Kinase inhibition assay (33P transfer), PDGFRB; conditions: read-out: PDGFRB-1
T13 construct: Kinases are expressed as either kinase domains or full length constructs; made in house

Hck-1 = molecular target: T14, Hck-1 (Homo sapiens, UniProt P08631); assay: Kinase inhibition assay (33P transfer), Hck; conditions: Table 6, Hck-1 kinase inhibition class
T14 construct: Kinases are expressed as either kinase domains or full length constructs; made in house

ErbB4 = molecular target: T15, ErbB4 (Homo sapiens, UniProt Q15303); assay: Kinase inhibition assay (33P transfer), ErbB4; conditions: read-out: ErbB4-1
T15 construct: Kinases are expressed as either kinase domains or full length constructs; made in house

FGFR1 = molecular target: T16, FGFR1 (Homo sapiens, UniProt P11362); assay: Kinase inhibition assay (33P transfer), FGFR1; conditions: read-out: FGFR1-1
T16 construct: Kinases are expressed as either kinase domains or full length constructs; made in house

IGFR-1 [1] = molecular target: T17, IGFR-1 (Homo sapiens, UniProt P08069); assay: Kinase inhibition assay (33P transfer), IGFR-1; conditions: Table 2, kinase inhibition class
T17 construct: Kinases are expressed as either kinase domains or full length constructs; made in house

ErbB2 = molecular target: T18, ErbB2 (Homo sapiens, UniProt P04626); assay: Kinase inhibition assay (33P transfer), ErbB2; conditions: read-out: ErbB2-2
T18 construct: Kinases are expressed as either kinase domains or full length constructs; made in house
Method in brief: as §5

IGFR-1 [2] = molecular target: T17, IGFR-1; assay: Kinase inhibition assay, IGFR-1 (Table 2); conditions: Table 2, kinase inhibition class

Measured: IC50

T8 sequence (P35968 20-1356, species assumed): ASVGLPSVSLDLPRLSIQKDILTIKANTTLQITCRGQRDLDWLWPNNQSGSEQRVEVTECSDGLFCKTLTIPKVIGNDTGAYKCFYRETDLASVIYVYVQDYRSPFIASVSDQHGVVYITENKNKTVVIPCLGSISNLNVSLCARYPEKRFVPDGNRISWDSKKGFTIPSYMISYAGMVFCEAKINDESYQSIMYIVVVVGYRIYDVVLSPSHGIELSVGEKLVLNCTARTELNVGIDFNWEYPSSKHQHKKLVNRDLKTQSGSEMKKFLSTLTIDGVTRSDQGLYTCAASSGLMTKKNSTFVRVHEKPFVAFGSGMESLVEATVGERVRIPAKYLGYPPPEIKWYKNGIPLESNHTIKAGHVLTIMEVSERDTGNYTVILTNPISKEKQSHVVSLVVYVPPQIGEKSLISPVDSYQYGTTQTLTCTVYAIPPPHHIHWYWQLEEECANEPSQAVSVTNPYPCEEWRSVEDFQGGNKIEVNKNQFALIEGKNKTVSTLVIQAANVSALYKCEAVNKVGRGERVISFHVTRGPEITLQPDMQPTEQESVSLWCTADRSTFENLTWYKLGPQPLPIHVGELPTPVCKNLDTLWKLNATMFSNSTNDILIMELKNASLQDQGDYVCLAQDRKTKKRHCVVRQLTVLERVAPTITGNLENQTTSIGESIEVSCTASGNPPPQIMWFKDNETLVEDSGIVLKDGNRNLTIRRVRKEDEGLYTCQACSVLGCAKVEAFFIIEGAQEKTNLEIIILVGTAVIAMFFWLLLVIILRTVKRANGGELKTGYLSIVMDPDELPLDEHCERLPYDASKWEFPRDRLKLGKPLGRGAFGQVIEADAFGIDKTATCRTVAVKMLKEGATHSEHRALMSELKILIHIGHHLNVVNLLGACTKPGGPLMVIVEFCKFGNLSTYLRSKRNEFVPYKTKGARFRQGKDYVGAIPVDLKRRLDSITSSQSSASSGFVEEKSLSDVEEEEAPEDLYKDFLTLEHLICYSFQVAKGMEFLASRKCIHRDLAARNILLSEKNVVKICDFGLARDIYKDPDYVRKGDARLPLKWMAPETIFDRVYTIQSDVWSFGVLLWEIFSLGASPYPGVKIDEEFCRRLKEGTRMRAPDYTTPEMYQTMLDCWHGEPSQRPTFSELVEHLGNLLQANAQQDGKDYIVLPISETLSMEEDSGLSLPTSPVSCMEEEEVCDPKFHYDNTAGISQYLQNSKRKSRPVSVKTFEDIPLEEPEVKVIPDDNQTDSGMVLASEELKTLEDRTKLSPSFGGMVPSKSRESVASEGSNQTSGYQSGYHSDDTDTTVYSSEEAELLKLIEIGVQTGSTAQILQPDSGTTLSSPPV
T2 sequence (P07948 whole entry, species assumed, the tested form may be a part): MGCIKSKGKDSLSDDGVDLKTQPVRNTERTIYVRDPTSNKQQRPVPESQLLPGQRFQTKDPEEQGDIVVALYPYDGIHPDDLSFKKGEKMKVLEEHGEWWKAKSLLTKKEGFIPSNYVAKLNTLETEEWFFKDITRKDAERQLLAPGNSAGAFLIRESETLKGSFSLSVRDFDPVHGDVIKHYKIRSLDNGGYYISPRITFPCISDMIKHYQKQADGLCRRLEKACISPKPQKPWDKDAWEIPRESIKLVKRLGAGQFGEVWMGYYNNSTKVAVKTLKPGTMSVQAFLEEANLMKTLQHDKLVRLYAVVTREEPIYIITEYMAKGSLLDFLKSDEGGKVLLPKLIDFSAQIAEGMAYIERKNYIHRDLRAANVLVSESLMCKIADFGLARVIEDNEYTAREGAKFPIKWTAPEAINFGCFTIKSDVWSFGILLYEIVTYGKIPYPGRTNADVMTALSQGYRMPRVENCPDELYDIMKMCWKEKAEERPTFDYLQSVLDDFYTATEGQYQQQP
T11 sequence (P08581 25-1390): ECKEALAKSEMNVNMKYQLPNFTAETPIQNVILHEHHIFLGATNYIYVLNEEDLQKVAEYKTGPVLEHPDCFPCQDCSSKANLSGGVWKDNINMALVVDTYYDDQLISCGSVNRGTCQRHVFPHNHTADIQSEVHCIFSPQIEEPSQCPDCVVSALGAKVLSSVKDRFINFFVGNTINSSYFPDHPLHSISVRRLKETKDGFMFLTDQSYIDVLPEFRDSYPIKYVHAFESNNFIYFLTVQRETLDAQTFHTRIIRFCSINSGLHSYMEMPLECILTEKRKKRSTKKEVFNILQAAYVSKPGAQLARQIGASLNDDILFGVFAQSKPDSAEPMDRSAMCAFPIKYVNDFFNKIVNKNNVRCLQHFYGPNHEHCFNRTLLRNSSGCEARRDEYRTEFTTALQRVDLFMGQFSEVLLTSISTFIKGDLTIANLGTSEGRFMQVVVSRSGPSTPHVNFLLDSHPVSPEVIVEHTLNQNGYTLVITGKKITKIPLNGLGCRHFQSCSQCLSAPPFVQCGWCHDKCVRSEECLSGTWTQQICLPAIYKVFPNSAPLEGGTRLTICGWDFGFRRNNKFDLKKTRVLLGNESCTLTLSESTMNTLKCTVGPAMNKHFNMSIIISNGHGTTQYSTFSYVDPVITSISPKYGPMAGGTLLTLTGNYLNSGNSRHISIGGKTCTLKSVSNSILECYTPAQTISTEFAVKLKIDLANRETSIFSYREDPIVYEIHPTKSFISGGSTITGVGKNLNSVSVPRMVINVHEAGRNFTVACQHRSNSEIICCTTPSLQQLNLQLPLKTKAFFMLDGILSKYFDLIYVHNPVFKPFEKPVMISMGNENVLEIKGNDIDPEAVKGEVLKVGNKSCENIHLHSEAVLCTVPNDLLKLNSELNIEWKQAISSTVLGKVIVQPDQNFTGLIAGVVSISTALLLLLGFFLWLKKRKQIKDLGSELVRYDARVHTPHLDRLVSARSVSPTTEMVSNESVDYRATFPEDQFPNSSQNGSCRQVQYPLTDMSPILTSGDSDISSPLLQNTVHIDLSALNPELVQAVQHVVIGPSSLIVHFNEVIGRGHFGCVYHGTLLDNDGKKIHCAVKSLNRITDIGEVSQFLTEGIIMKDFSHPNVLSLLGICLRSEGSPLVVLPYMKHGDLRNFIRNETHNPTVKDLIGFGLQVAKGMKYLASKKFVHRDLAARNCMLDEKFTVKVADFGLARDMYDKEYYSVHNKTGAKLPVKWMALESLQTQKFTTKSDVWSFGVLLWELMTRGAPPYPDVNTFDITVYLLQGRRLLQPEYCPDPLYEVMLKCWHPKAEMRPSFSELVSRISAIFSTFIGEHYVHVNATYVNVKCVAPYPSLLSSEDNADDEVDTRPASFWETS
T3 sequence (P12931 whole entry, species assumed, the tested form may be a part): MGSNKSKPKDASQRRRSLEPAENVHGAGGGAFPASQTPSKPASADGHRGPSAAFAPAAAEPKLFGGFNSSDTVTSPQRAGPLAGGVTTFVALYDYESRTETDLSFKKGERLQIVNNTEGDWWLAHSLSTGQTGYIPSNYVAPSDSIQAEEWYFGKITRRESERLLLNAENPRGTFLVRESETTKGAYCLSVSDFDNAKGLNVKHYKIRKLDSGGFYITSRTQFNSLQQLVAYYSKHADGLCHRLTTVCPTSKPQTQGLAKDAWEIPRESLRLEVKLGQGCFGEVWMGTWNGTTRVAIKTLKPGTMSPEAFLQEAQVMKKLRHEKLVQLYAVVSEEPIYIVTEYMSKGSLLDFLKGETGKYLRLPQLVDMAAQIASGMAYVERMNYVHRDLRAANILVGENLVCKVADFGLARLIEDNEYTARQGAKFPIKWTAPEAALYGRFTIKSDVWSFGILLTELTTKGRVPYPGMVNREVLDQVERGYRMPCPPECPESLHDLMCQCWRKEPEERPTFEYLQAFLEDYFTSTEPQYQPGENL
T7 sequence (P00533 25-1210, species assumed): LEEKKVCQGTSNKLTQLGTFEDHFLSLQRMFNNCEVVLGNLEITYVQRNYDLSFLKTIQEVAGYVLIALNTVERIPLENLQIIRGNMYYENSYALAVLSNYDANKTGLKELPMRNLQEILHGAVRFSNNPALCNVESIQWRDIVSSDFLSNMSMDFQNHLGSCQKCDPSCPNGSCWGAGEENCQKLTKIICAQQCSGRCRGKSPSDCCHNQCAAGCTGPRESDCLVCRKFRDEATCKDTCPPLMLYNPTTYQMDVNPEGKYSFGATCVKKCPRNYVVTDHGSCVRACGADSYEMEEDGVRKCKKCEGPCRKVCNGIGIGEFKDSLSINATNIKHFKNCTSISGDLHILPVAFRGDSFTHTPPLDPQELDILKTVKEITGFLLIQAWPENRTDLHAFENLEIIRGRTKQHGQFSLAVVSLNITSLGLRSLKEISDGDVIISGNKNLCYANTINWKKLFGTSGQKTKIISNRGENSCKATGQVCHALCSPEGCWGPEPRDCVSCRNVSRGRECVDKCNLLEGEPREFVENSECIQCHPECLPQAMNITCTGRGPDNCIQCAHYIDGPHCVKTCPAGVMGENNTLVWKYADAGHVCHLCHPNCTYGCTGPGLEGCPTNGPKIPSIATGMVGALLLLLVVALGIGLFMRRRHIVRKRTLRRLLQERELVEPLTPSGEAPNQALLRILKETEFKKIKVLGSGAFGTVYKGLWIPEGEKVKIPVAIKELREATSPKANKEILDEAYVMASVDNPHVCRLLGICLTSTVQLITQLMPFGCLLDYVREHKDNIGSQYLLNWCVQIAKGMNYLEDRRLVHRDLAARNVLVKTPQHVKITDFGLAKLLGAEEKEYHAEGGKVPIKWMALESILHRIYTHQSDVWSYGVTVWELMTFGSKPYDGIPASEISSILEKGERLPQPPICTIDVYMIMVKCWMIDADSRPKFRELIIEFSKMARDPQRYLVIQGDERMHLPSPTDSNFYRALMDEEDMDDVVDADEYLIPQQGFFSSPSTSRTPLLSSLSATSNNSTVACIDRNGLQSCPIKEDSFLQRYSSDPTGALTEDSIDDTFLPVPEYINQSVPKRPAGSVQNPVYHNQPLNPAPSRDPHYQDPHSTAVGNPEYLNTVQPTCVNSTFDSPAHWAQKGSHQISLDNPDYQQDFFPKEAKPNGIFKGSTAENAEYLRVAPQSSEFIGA

COc1cc(Nc2ncnc(-n3c(Nc4ccc5cn[nH]c5c4)nc4ccccc43)n2)cc(OC)c1OC [Compound 406]
< 0.785 µM: FGFR1
4.71 to 6.87 µM: Flt-1
> 8.83 µM: Src | Zap-70; Table 3 | Itk; Table 3 | EGFR | Tek | c-Met | AKT | Hck-1 | ErbB4
0.785 to 4.71 µM: Lck; Table 3 | Lyn | Fyn | Kdr; Table 3 | PDGFRB

C=CCNc1cc(-c2ncnc(Nc3cc(OC)c(OC)c(OC)c3)n2)ccn1 [Compound 412]
6.08 to 8.87 µM: PDGFRB
> 11.4 µM: Src | Fyn | Zap-70; Table 3 | Itk; Table 3 | EGFR | Flt-1 | Tek | c-Met | AKT | Hck-1 | ErbB4 | FGFR1
< 1.01 µM: Lck; Table 3 | Lyn
1.01 to 6.08 µM: Kdr; Table 3

COc1cc(Nc2ncnc(-n3cccc3)n2)cc(OC)c1OC [Compound 182]
7.33 to 10.7 µM: Lck; Table 3
< 1.22 µM: Kdr; Table 3
10.7 to 13.7 µM: c-Met
> 13.7 µM: Zap-70; Table 3 | Itk; Table 3 | EGFR | Flt-1 | PDGFRB | FGFR1

COc1ccc(Nc2ncnc(Nc3ccc(OC)c(OC)c3)n2)cc1OC [Compound 63]
> 11.7 µM: Lck; Table 3 | Zap-70; Table 3 | Itk; Table 3 | EGFR | Tek | c-Met | AKT | IGFR-1 [1]
1.04 to 6.26 µM: Kdr; Table 3 | PDGFRB

O=C(O)Cc1cccc(Nc2ncnc(Nc3cc(-c4ccco4)n[nH]3)n2)c1 [Compound 983]
> 11.9 µM: ErbB2
< 1.06 µM: EGFR | Kdr | c-Met
1.06 to 6.36 µM: Itk | IGFR-1 [2] | PDGFRB
9.27 to 11.9 µM: AKT
6.36 to 9.27 µM: Lck | Zap-70 | Tek

COc1cc(Nc2ncnc(N3CCCc4cc(C)ccc43)n2)cc(OC)c1OC [Compound 498]
8.59 to 11 µM: Tek
> 11 µM: Zap-70 | Itk | AKT | IGFR-1 [2] | Hck-1
0.982 to 5.89 µM: ErbB2 | ErbB4
< 0.982 µM: Lyn | Src | EGFR
